The values below come from patent publication EP4603105A1, “PHARMACEUTICAL COMPOSITION CONTAINING CYCLIC COMPOUND HAVING SELECTIVE KRAS INHIBITORY EFFECT AGAINST HRAS AND NRAS” (CHUGAI SEIYAKU KABUSHIKI KAISHA, priority 2022, dated 2024).

For test [1], the target named is GDP-bound KRAS wild-type protein (Homo sapiens, UniProt P01116). Description: Binding to KRAS by surface plasmon resonance (SPR), dissociation constant KD. Particulars: Single Cycle Kinetics, 1:1 binding model. Put shortly: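 GDP-loaded biotinylated Avi-tag RAS proteins (E. coli-expressed) captured on a Biotin CAPture chip at ~100–300 RU; single-cycle kinetics at 30°C, 100 µL/min, 75 s injections of rising compound concentrations. HBS pH 7.4 running buffer with 1 mM DTT, 10 mM MgCl2, 10 µM GDP, 4% DMSO. KD from 1:1 binding fit.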
GDP-bound KRAS wild-type protein, sequence (P01116 1-188 isoform P01116-2): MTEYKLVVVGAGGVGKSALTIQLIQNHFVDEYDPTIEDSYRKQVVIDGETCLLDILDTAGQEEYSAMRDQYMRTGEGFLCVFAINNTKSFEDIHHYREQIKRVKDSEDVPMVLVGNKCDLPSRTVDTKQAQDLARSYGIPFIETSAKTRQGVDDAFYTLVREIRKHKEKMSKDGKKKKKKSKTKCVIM
In general terms: Surface plasmon resonance follows binding to a sensor surface in real time, without labels.

Test [2] addresses GDP-bound NRAS wild-type protein (Homo sapiens, UniProt P01111). The test can be described thus: Binding to NRAS by surface plasmon resonance (SPR), KD and KD ratio to KRAS. The following applies: ratio of KD with respect to GDP-bound NRAS wild-type protein to KD with respect to KRAS. Put shortly: (§1)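 Compound binding is evaluated by SPR single-cycle kinetics, with concentrations added intermittently from low to high for 75 s each. Target surfaces carry GDP-loaded biotinylated Avi-RAS at about 100–300 RU, regenerated after each cycle; temperature 30°C. A 1:1 binding model gives KD.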

A further test concerns the target HRAS wild-type protein (Homo sapiens, UniProt P01112). Description: Binding to HRAS by surface plasmon resonance (SPR), KD and KD ratio to KRAS. Particulars: ratio of KD with respect to HRAS wild-type protein to KD with respect to KRAS. Put shortly:
as §1

The test system of test [3] is human lung cancer strain NCI-H441. Description: NCI-H441 cell proliferation inhibitory activity (CellTiter-Glo, 4 days). Particulars: 50% proliferation inhibitory concentration, four days, read-out: NCl-H441 IC50. The format is cell-based. Put shortly: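 Proliferation was scored by […] measured after the reagent was added to cultures kept at 37°C in 5% carbon dioxide.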
In general terms: ATP-based viability assays read luminescence as a measure of living cells.

SMILES strings stand for the structures.

HRAS wild-type protein, sequence (P01112 whole entry): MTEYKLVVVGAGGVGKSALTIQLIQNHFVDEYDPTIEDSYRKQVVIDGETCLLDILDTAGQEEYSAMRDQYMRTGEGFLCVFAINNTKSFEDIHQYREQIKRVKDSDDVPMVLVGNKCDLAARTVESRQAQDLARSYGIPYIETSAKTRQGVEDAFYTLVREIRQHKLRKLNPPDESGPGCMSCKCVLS
GDP-bound NRAS wild-type protein, sequence (P01111 whole entry): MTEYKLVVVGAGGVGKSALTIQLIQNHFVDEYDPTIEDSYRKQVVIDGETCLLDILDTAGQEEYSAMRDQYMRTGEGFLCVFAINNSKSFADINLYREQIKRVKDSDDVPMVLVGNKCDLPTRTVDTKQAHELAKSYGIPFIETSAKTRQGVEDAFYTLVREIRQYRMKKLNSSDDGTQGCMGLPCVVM

By Kd is commonly meant the constant that tells how readily two partners part at equilibrium. One may read the IC50 as the concentration that inhibits the measured activity by half. Molecule `CCO[C@@H]1C[C@H]2C(=O)NC3(CCC3)C(=O)N(C)[C@@H](C3CCCC3)C(=O)N(C)[C@H](C(=O)N(C)C)CC(=O)N(C)[C@@H](CC3CC3)C(=O)N[C@@H]([C@@H](C)CC)C(=O)N(C)CC(=O)N(C)[C@H]3C/C=C\CCN(C3=O)[C@@H](Cc3ccc(C)cc3)C(=O)N(C)CC(=O)N[C@@H](CCc3cc(F)c(C(F)(F)F)c(F)c3)C(=O)N2C1` [PP1407] came in with a dissociation constant Kd in test [1] of 0.074 nM. The “NRAS /KRAS” value in test [2] is “A (a compound having 10 or more and less than 20 is denoted as A)”. For the same molecule, on HRAS wild-type protein, the “HRAS /KRAS” value was “A (a compound having 10 or more and less than 20 is denoted as A)”. For the same molecule, in test [3], the IC50 was determined as 18.7 nM.
The molecule `CCO[C@@H]1C[C@H]2C(=O)NC3(CCC3)C(=O)N(C)[C@@H](C3CCCC3)C(=O)N(C)[C@H](C(=O)N3CCOCC3)CC(=O)N(C)[C@@H](CC3CC3)C(=O)N[C@@H]([C@@H](C)CC)C(=O)N(C)CC(=O)N(C)[C@H]3C/C=C\CCN(C3=O)[C@@H](Cc3ccc(C)cc3)C(=O)N(C)CC(=O)N[C@@H](CCc3cc(F)c(C(F)(F)F)c(F)c3)C(=O)N2C1` [PP1408] registered a dissociation constant Kd in test [1] of 0.22 nM. For the same molecule, the “NRAS /KRAS” value in test [2] is “A (a compound having 10 or more and less than 20 is denoted as A)”. Further, the “HRAS /KRAS” value at HRAS wild-type protein was “A (a compound having 10 or more and less than 20 is denoted as A)”. The IC50 in test [3] turned out to be 37.6 nM.
As for `CCO[C@@H]1C[C@H]2C(=O)NC3(CCC3)C(=O)N(C)[C@@H](C3CCCC3)C(=O)N(C)[C@H](C)CC(=O)N(C)[C@@H](CC3CC3)C(=O)N[C@@H]([C@@H](C)CC)C(=O)N(C)CC(=O)N(C)[C@H]3C/C=C\CCN(C3=O)[C@@H](Cc3ccc(C)cc3)C(=O)N(C)CC(=O)N[C@@H](CCc3cc(F)c(C(F)(F)F)c(F)c3)C(=O)N2C1` [PP1410], the dissociation constant (Kd) in test [1] stood at 0.32 nM. In addition, the “NRAS /KRAS” value in test [2] is “B (a compound having 3 or more and less than 10 is denoted as B)”. Further, at HRAS wild-type protein, the “HRAS /KRAS” value was “B (a compound having 3 or more and less than 10 is denoted as B)”. Moreover, the IC50 in test [3] worked out at 51 nM.
`CCO[C@@H]1C[C@H]2C(=O)NC3(CCC3)C(=O)N(C)[C@@H](C3CCCC3)C(=O)N(C)[C@H](C)CC(=O)N(C)[C@@H](CC3CCCC3)C(=O)N[C@@H]([C@@H](C)CC)C(=O)N(C)CC(=O)N(C)[C@H]3C/C=C\CCN(C3=O)[C@@H](Cc3ccc(C)cc3)C(=O)N(C)CC(=O)N[C@@H](CCc3cc(F)c(C(F)(F)F)c(F)c3)C(=O)N2C1` [PP1413] displayed a dissociation constant (Kd) in test [1] of 0.42 nM. In test [2], the “NRAS /KRAS” value was “B (a compound having 3 or more and less than 10 is denoted as B)”. For the same molecule, the “HRAS /KRAS” value at HRAS wild-type protein was “B (a compound having 3 or more and less than 10 is denoted as B)”. Moreover, in test [3], the half-inhibitory concentration (IC50) was 62.5 nM.
As for `CCO[C@@H]1C[C@H]2C(=O)NC3(CCC3)C(=O)N(C)[C@@H](C3CCCC3)C(=O)N(C)[C@H](C(=O)N(C)C)CC(=O)N(C)[C@@H](CC(C)C)C(=O)N[C@@H]([C@@H](C)CC)C(=O)N(C)CC(=O)N(C)[C@H]3C/C=C\CCN(C3=O)[C@@H](Cc3ccc(C)cc3)C(=O)N(C)CC(=O)N[C@@H](CCc3cc(F)c(C(F)(F)F)c(F)c3)C(=O)N2C1` [PP1414], binding in test [1] was characterised by a dissociation constant (Kd) of 0.074 nM. Besides, the “NRAS /KRAS” value in test [2] is “A (a compound having 10 or more and less than 20 is denoted as A)”. Besides, the “HRAS /KRAS” value at HRAS wild-type protein was “B (a compound having 3 or more and less than 10 is denoted as B)”. Besides, the IC50 in test [3] was 4.4 nM.
Turning to `CCO[C@@H]1C[C@H]2C(=O)NC3(CCC3)C(=O)N(C)[C@@H](C3CCCC3)C(=O)N(C)[C@H](C)CC(=O)N(C)[C@@H](CC(C)C)C(=O)N[C@@H]([C@@H](C)CC)C(=O)N(C)CC(=O)N(C)[C@H]3C/C=C\CCN(C3=O)[C@@H](Cc3ccc(C)cc3)C(=O)N(C)CC(=O)N[C@@H](CCc3cc(F)c(C(F)(F)F)c(F)c3)C(=O)N2C1` [PP1417], the affinity in test [1], expressed as Kd, was 0.26 nM. In addition, the “NRAS /KRAS” value in test [2] is “B (a compound having 3 or more and less than 10 is denoted as B)”. Further, the “HRAS /KRAS” value on HRAS wild-type protein is “B (a compound having 3 or more and less than 10 is denoted as B)”. Further, the IC50 in test [3] came out at 18.4 nM.
In the case of `CCO[C@@H]1C[C@H]2C(=O)NC3(CCC3)C(=O)N(C)[C@@H](C3CCCC3)C(=O)N(C)[C@H](C(=O)N3CCOCC3)CC(=O)N(C)[C@@H](CC3CCCCC3)C(=O)N[C@@H]([C@@H](C)CC)C(=O)N(C)CC(=O)N(C)[C@H]3C/C=C\CCN(C3=O)[C@@H](Cc3ccc(C)cc3)C(=O)N(C)CC(=O)N[C@@H](CCc3cc(F)c(C(F)(F)F)c(F)c3)C(=O)N2C1` [PP1420], binding in test [1] was characterised by a dissociation constant (Kd) of 0.35 nM. In addition, in test [2], the “NRAS /KRAS” value is “A (a compound having 10 or more and less than 20 is denoted as A)”. For the same molecule, the “HRAS /KRAS” value on HRAS wild-type protein is “A (a compound having 10 or more and less than 20 is denoted as A)”. The IC50 in test [3] turned out to be 31.4 nM.
As for `CCO[C@@H]1C[C@H]2C(=O)NC3(CCC3)C(=O)N(C)[C@@H](C3CCCC3)C(=O)N(C)[C@H](C(=O)N3CCOCC3)CC(=O)N(C)[C@@H](CC3CCC3)C(=O)N[C@@H]([C@@H](C)CC)C(=O)N(C)CC(=O)N(C)[C@H]3C/C=C\CCN(C3=O)[C@@H](Cc3ccc(C(F)(F)F)cc3)C(=O)N(C)CC(=O)N[C@@H](CCc3cc(F)c(C(F)(F)F)c(F)c3)C(=O)N2C1` [PP1422], in test [1], the affinity, expressed as Kd, was 0.22 nM. For the same molecule, the “NRAS /KRAS” value in test [2] is given as “AA (a compound having 20 or more is denoted as AA)”. The “HRAS /KRAS” value on HRAS wild-type protein is “A (a compound having 10 or more and less than 20 is denoted as A)”. In test [3], the 50% inhibitory concentration (IC50) turned out to be 14.1 nM.
`CCO[C@@H]1C[C@H]2C(=O)NC3(CCC3)C(=O)N(C)[C@@H](C3CCCC3)C(=O)N(C)[C@H](C(=O)N3CCCC3)CC(=O)N(C)[C@@H](CC3CCC3)C(=O)N[C@@H]([C@@H](C)CC)C(=O)N(C)CC(=O)N(C)[C@H]3C/C=C\CCN(C3=O)[C@@H](Cc3ccc(C)cc3)C(=O)N(C)CC(=O)N[C@@H](CCc3cc(F)c(C(F)(F)F)c(F)c3)C(=O)N2C1` [PP1425] came in with a dissociation constant (Kd) in test [1] of 0.24 nM. Besides, in test [2], the “NRAS /KRAS” value is “A (a compound having 10 or more and less than 20 is denoted as A)”. The “HRAS /KRAS” value on HRAS wild-type protein is “B (a compound having 3 or more and less than 10 is denoted as B)”. The concentration for half-maximal inhibition (IC50) in test [3] came out at 20.2 nM.
In the case of `CCO[C@@H]1C[C@H]2C(=O)NC3(CCC3)C(=O)N(C)[C@@H](C(CC)CC)C(=O)N(C)[C@H](C(=O)N(C)C)CC(=O)N(C)[C@@H](CC3CC3)C(=O)N[C@@H]([C@@H](C)CC)C(=O)N(C)CC(=O)N(C)[C@H]3C/C=C\CCN(C3=O)[C@@H](CC3CCCCC3)C(=O)N(C)CC(=O)N[C@@H](CCc3cc(F)c(C(F)(F)F)c(F)c3)C(=O)N2C1` [PP1428], binding in test [1] was put at a Kd of 0.87 nM. Further, the “NRAS /KRAS” value in test [2] is “AA (a compound having 20 or more is denoted as AA)”. The “HRAS /KRAS” value at HRAS wild-type protein was “A (a compound having 10 or more and less than 20 is denoted as A)”. Further, the half-maximal inhibitory concentration (IC50) in test [3] was 38.8 nM.
`CCO[C@@H]1C[C@H]2C(=O)NC3(CCC3)C(=O)N(C)[C@@H](C(CC)CC)C(=O)N(C)[C@H](C(=O)N(C)C)CC(=O)N(C)[C@@H](CC3CCCC3)C(=O)N[C@@H]([C@@H](C)CC)C(=O)N(C)CC(=O)N(C)[C@H]3C/C=C\CCN(C3=O)[C@@H](CC3CCCCC3)C(=O)N(C)CC(=O)N[C@@H](CCc3cc(F)c(C(F)(F)F)c(F)c3)C(=O)N2C1` [PP1430] had a Kd in test [1] of 0.85 nM. For the same molecule, the “NRAS /KRAS” value in test [2] is “A (a compound having 10 or more and less than 20 is denoted as A)”. At HRAS wild-type protein, the “HRAS /KRAS” value is “A (a compound having 10 or more and less than 20 is denoted as A)”. In test [3], the IC50 was 70.4 nM.
